PMC12474259, “ITF6475, a New Histone Deacetylase 6 Inhibitor, Prevents Painful Neuropathy Induced by Paclitaxel” (Toxics, 2025)
Like-named read-outs stand apart in the source and are kept apart here.

How the values were obtained:
C57BL/6 female mice [1] = assay: General toxicity: mortality, health, body weight, histopathology; type: in vivo; conditions: for mortality: ITF6475 all doses p.o. daily
Method: In the days of co-treatment, ricolinostat and all doses of ITF were administered 4 h before PTX. The animals were housed in a certified and limited-access facility with controlled temperature (22 °C ± 2) and humidity (50% ± 20) and an artificial 12 h:12 h light cycle from 7 a.m. to 7 p.m. Mice were monitored daily to evaluate the mortality and their health, and body weight was measured twice a week during the treatment period in order to monitor general conditions and to adjust the dose.
(§1) At baseline and at the end of treatment, neurophysiological evaluations and dynamic tests were performed (Figure 1). Baseline neurophysiological results were used to randomize the animals into the 6 groups to ensure homogeneity. At the end of treatment, the animals were sacrificed by isoflurane overdose, caudal nerves, liver, spleen, thymus, kidneys, and sternum were used for histopathological analysis, and skin biopsies for intraepidermal nerve fiber (IENF) density analysis were collected. At the end of the study, blood was collected from the tail vein under isoflurane anesthesia into 1.5 mL Eppendorf tubes, centrifuged at 3500× g for 10 min at 4 °C, and then serum was transferred into a new tube and stored at –80 °C until examined for neurofilament light (NfL) level analysis.
Liver, spleen, thymus, kidneys, and sternum were collected and fixed in 10% buffered formalin at room temperature for 4 days. After fixation, the sternum was decalcified for 48 h at room temperature in 10% buffered EDTA. After trimming, these samples were paraffin-embedded, cut into 3 µm thick sections, stained with hematoxylin–eosin, and examined with an Olympus BX51 light microscope (Olympus, Segrate, Italy).

C57BL/6 female mice [2] = assay: Neuropathology, morphological analysis of caudal nerves; type: in vivo, mouse; conditions: end of treatment, PTX alone or in combination
Method: Caudal nerves were isolated for morphological analysis and processed as previously described, separating the proximal and the distal portions to obtain a better evaluation of the distal-to-proximal extension of the damage. Briefly, the caudal and sciatic nerves were immersion-fixed in 3% glutaraldehyde and were subsequently osmicated, dehydrated, and embedded in epoxy resin. Semithin sections of 1.5 μm thickness were prepared from at least three tissue blocks for each animal, stained with toluidine blue, and examined with a Nexcope Ne920 AUTO light microscope (TiEsseLab Srl, Milano, Italy).

[3] = test system: neurofilament light (NfL); assay: Serum neurofilament light (NfL) analysis in PIPN model; type: in vivo, mouse; conditions: end of treatment
Method: as §1
Serum NfL concentrations were measured using an automated chemiluminescent enzyme immunoassay instrument LUMIPULSE G600 (LUMIPULSE G NfL Blood kit, Fujirebio, Pomezia, Italy). The concentration was expressed in pg/mL [27, 30, 31].

C57BL/6 female mice [4] = type: in vivo; conditions: end of treatment, PTX + ACY 50 mg/kg p.o. daily, p < 0.01
Method: (§2) C57BL/6 female mice (Inotiv, Udine, Italy) were used and randomized into six different groups (19 mice/group): one group was treated with PTX vehicle i.v., 1 time/week for 4 weeks and methocel 0.5% os, daily (VEH group); a second group was treated with PTX, i.v., 70 mg/kg 1 time/week for 4 weeks (PTX group); and the other four groups were treated with PTX, i.v., 70 mg/kg 1 time/week for 4 weeks and co-treated with ricolinostat, p.o., 50 mg/kg daily (PTX + ACY group), or with ITF6475, p.o., 1–6–12.5 mg/kg daily, p.o., (PTX + ITF1, PTX + ITF6, PTX + ITF12.5 groups), respectively (Figure 1). In the days of co-treatment, ricolinostat and all doses of ITF were administered 4 h before PTX. […] Mice were monitored daily to evaluate the mortality and their health, and body weight was measured twice a week during the treatment period in order to monitor general conditions and to adjust the dose.
To evaluate the IENF density, glabrous skin punches from the plantar hind paw were fixed in paraformaldehyde-lysine and periodate sodium (PLP) 2%, cryoprotected and serially cut in 20 μm thick sections. […] The total number of PGP 9.5-positive IENF crossing the dermal-epidermal junction was counted by a blinded examiner (ACh) under a light microscope at 40× magnification (Nexcope Ne920 AUTO light microscope, TiEsseLab Srl, Milano, Italy). […]

C57BL/6 female mice [5] = type: in vivo; conditions: PTX + ricolinostat 50 mg/kg p.o. daily
Method: as §2
The onset of PIPN was assessed by evaluating the sensory nerve conduction velocity (NCV) and nerve action potential amplitude (SNAP) of caudal and digital nerves using the electromyography apparatus (Matrix Light, Micromed, Treviso, Italy). […] Latencies were measured from stimulus onset, and peak-to-peak amplitudes were calculated. The NCV was calculated considering the measured distance between the recording and the stimulating negative electrode divided by the latency. […]

[6] = general statement on hydroxamic acids, no reference given; cited from earlier work
[7] = Pharmacokinetic assessment in mouse plasma (LC-MS/MS); type: in vivo; conditions: for Cmax / AUC(0-t): oral; for AUC(0-t): read-out: AUC0–8h
Method: For the determination of ITF6475 in mouse plasma (n. 3 mice/group), aliquots of 20 µL of samples were deproteinized by adding 300 µL of acetonitrile. After centrifugation, 100 µL of the supernatant was collected from each sample and allowed to dry in a nitrogen flow at 35 °C. The residue was then reconstituted in 150 µL of the mixture in 90% water/10% acetonitrile and 0.1% formic acid.
Quantification of ITF6475 in the samples was carried out on a calibration curve in the range 1–1000 ng/mL. Quantification of Ricolinostat in mouse plasma was carried out on aliquots of 20 µL and deproteinized with 200 µL of acetonitrile. Aliquots of 100 µL of the supernatant were collected and diluted with 100 µL of the mixture in 90% water/10% acetonitrile and 0.1% formic acid. The calibration curve range was 1–1000 ng/mL.
Samples were analyzed in an LC-MS/MS system, constituted by a Prominence Shimadzu HPLC (Shimadzu Italia S.r.l., Milano, Italy) and an API6500+ triple quadrupole mass spectrometer equipped with TurboIonSpray (Sciex, Milano, Italy). Analyses were carried out in a positive mode. The system was managed through the software Analyst 1.7.2 (Sciex, Milano, Italy).

[8] = 4 weeks, PTX 70 mg/kg i.v. 1 time/week, ricolinostat 50 mg/kg p.o. daily

SMILES | mortality (C57BL/6 female mice [1]; [8]) | mice with mild, diffuse hepatic lipidosis (C57BL/6 female mice [1]; female, C57BL/6, mouse, in vivo, 4 weeks) | morphology of distal caudal nerves (C57BL/6 female mice [2]) | morphology of proximal caudal nerves (C57BL/6 female mice [2]) | serum NfL vs. VEH ([3]; PTX 70 mg/kg i.v. alone, p < 0.001) | IENF density vs. VEH (C57BL/6 female mice [4]) | tolerability (C57BL/6 female mice [1]; 4 weeks, PTX 70 mg/kg i.v. 1 time/week, ricolinostat 50 mg/kg p.o. daily, ITF6475 1–6–12.5 mg/kg p.o. daily (all doses)) | body weight vs. VEH (C57BL/6 female mice [1]; PTX alone or in combination with ricolinostat 50 mg/kg or all doses of ITF) | relevant toxicity (C57BL/6 female mice [1]; co-treated mice, ricolinostat 50 mg/kg or ITF6475 1–12.5 mg/kg p.o. daily with PTX) | histopathology of thymus and spleen (C57BL/6 female mice [1]; end of treatment, PTX alone or in combination with ricolinostat or ITF6475) | protection of PTX-induced reduction in digital nerve SNAP (C57BL/6 female mice [5]) | protein binding (in words) [6] | serum NfL vs. VEH ([3]; PTX + ACY 50 mg/kg p.o. daily, p < 0.05) | AUC increase with dosage [7] | Cmax ([7]; 25 mg/kg, dose 25 mpk) | AUC(0-t) ([7]; 25 mg/kg, dose 25 mpk) | Cmax ([7]; 100 mg/kg, dose 100 mpk) | AUC(0-t) ([7]; 100 mg/kg, dose 100 mpk) | Cmax ([7]; 200 mg/kg, dose 200 mpk) | AUC(0-t) ([7]; 200 mg/kg, dose 200 mpk)
CC(=O)O[C@H]1C(=O)[C@@]2(C)[C@H]([C@H](OC(=O)c3ccccc3)[C@]3(O)C[C@H](OC(=O)[C@H](O)[C@@H](NC(=O)c4ccccc4)c4ccccc4)C(C)=C1C3(C)C)[C@]1(OC(C)=O)CO[C@@H]1C[C@@H]2O [PTX, paclitaxel] | no mortality was observed | approximately 25% | even more severe axonopathy | severe axonopathy with numerous degenerated fibers | statistically significant difference |  |  |  |  |  |  |  |  |  |  |  |  |  |  | 
O=C(CCCCCCNC(=O)c1cnc(N(c2ccccc2)c2ccccc2)nc1)NO [ricolinostat] | no mortality was observed |  |  |  |  | statistically significant reduction | well tolerated | statistically significant increase in body weight | no evidence of relevant toxicity | thymic and splenic hypoplasia associated with reactive extramedullary ectopic hematopoiesis | significant protection of reduction in digital nerve SNAP | not heavily protein-bound | statistically significant difference | increase non-linearly at doses above 25 mg/kg | 33.7 ng/mL | 124 ng·h/mL | 29.8 ng/mL | 171 ng·h/mL | 33.9 ng/mL | 234 ng·h/mL
